Experimental data published in ChEMBL document CHEMBL1152018, “Molecular design of novel PGI2 agonists without PG skeleton. II” (Bioorg Med Chem Lett, 1995).

Assays:
[1] = biological target: Prostacyclin receptor (Homo sapiens, UniProt P43119); assay: Displacement of [3H]iloprost from Prostaglandin I2 receptor of human platelets
[2] = species on record: Homo sapiens; assay: Inhibitory activity against ADP-induced platelet aggregation using human platelet rich plasma at a concentration of 4 uM by functional assay
[3] = species on record: Cavia porcellus; assay: Effective dose for ex vivo inhibition of platelet aggregation for four hours in guinea pigs; assay type: functional, organism-based
[4] = species on record: Canis familiaris; assay: Evaluated for ADP-induced antiaggregation of dog platelets; assay type: functional; conditions: Canis lupus familiaris
[5] = species on record: Cavia porcellus; assay: Evaluated for ADP-induced antiaggregation of guinea pig platelets; assay type: functional

Sequence of Prostacyclin receptor (P43119 whole entry): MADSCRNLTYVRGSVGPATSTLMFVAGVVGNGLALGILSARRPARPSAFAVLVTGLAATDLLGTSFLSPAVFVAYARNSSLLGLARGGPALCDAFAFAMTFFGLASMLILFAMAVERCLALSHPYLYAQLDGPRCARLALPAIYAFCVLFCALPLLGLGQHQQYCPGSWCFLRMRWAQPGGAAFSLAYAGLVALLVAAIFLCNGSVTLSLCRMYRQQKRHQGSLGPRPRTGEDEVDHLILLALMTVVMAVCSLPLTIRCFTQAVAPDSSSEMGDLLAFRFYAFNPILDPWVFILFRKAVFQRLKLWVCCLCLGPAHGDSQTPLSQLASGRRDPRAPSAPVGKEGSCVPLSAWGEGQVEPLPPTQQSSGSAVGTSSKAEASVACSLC

Structure (SMILES) | IC50 [1] | IC50 [2] | EC50 [3] | IC50 [4] | IC50 [5]
C/C(CC1CCc2c(cccc2OCC(=O)O)C1)=N\OC(c1ccccc1)c1ccccc1 (configuration not stated) | 380 nM |  |  |  | 
CCC/C(CCC1CCCc2c(OCC(=O)O)cccc21)=N\OC(c1ccccc1)c1ccccc1 (configuration not stated) | 2100 nM | 2400 nM |  |  | 
C/C(CC1CCc2c(cccc2OCC(=O)O)C1)=N\OCc1ccccc1 (configuration not stated) | 5300 nM | 12000 nM |  |  | 
CCCCC[C@H](O)/C=C/[C@H]1[C@H](O)CC(=O)[C@@H]1CCCCCCC(=O)O [ALPROSTADIL] | 1400 nM | 70 nM |  |  | 

More lines, now with the values ahead:

IC50 [1] | IC50 [2] | EC50 [3] | IC50 [4] | IC50 [5] | Structure (SMILES)
150 nM | 70 nM |  |  |  | CC/C(CC1CCc2c(cccc2OCC(=O)O)C1)=N\OC(c1ccccc1)c1ccccc1 (configuration not stated)
2200 nM | 1900 nM |  |  |  | C/C(C[C@@H]1CCc2c(cccc2OCC(=O)O)C1)=N\OC(c1ccccc1)c1ccccc1
 | 130 nM |  |  |  | CCC/C(C[C@H]1CCc2c(cccc2OCC(=O)O)C1)=N\OC(c1ccccc1)c1ccccc1
220 nM |  |  |  |  | C/C(C[C@H]1CCc2c(cccc2OCC(=O)O)C1)=N\OC(c1ccccc1)c1ccccc1
150 nM |  | 0.82 mg/kg | 7300 nM | 1900 nM | CCC/C(CC1CCc2c(cccc2OCC(=O)O)C1)=N\OC(c1ccccc1)c1ccccc1 (configuration not stated) [AP-227]
